One assay has as its target T1, recombinant human secreted phospholipase A2 (Homo sapiens, UniProt P14555).
T1 sequence (P14555 21-144): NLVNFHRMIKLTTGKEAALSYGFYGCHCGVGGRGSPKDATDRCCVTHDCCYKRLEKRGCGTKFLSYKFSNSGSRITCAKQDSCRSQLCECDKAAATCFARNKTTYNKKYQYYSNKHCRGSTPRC
As to the kind of experiment: Human secreted phospholipase A2 inhibition test (chromogenic assay, diheptanoyl thio-PC substrate). Format: biochemical. As to conditions: Inhibition of human secreted PLA2 IC50 ± mean deviation (3-5 tests), pH 7.5, 40° C., 30 minutes, 405 nm. As for the experimental part: The following chromogenic assay procedure was used to identify and evaluate inhibitors of recombinant human secreted phospholipase A2. The assay described herein has been adapted for high volume screening using 96 well microtiter plates.
A measured volume of racetic dipheptanoyl thio PC supplied in chloroform at a concentration of 100 mg/ml is taken to dryness and redissolved in 10 millimolar TRITON X-100™ nonionic detergent aqueous solution. Reaction Buffer is added to the solution, then DTNB to give the Reaction Mixture.
The reaction mixture thus obtained contains 1 mM diheptanoly thio-PC substrate, 0.29 mm Triton X-100™ detergent, and 0.12 mm DTMB in a buffered aqueous solution at pH 7.5.
1. Add 0.2 ml reaction mixture to all wells;
2. Add 10 ul test compound (or solvent blank) to appropriate wells, mix 20 seconds:
3. Add 50 nanograms of sPLA2 (10 microliters) to appropriate wells;
4. incubate plate at 40° C. for 30 minutes;
All compounds were tested in triplicate. […] Each sample was titrated in triplicate and result values were averaged for plotting and calculation of IC50 values. […] Each IC50 value was determined three times.
Usually IC50 stands for the concentration that gives 50% inhibition. On to `Cc1c(CC(N)=O)c2cc(O)ccc2n1Cc1ccccc1` [Example 2, 5-Hydroxy-2-methyl-1-(phenylmethyl)-1H-indole-3-acetamide], for which the IC50 was 840 ± 380 nM. Still for that read-out and setting: next, `Cc1c(CC(N)=O)c2cc(OCC(=O)O)ccc2n1Cc1ccccc1` [Example 19, 2-[[3-(2-Amino-2-oxoethyl)-2-methyl-1-(phenylmethyl)-1H-indol-5-yl]oxy]acetic acid]: 1160 ± 410 nM. On the same count and under the same terms, in the case of `Cc1c(CC(N)=O)c2cc(OCCC(=O)O)ccc2n1Cc1ccccc1` [Example 21, 3-[[3-(2-Amino-2-oxoethyl)-2-methyl-1-(phenylmethyl)-1H-indol-5-yl]oxy]-propanic acid] it was 430 ± 230 nM; in that of `NC(=O)Cc1c(Cl)n(Cc2ccccc2)c2ccc(OCCCC(=O)O)cc12` [Example 24, 4-[[3-(2-Amino-2-oxoethyl)-2-chloro-1-(phenylmethyl)-1H-indole-5-yl]oxy]butanoic acid], 60 ± 20 nM; in that of `Cc1c(CC(N)=O)c2cc(NCCC(=O)O)ccc2n1Cc1ccccc1` [Example 27, 3-[[3-(2-Amino-2-oxoethyl)-2-methyl-1-(phenylmethyl)-1H-indol-5-yl]amino]propanoic acid], 3300 ± 100 nM.

Turning to `CCOC(=O)CCCCOc1ccc2c(CC(N)=O)c(C)n(Cc3ccccc3)c2c1` [Example 33, 5-[[3-(2-Amino-2-oxoethyl)-2-methyl-1-(phenylmethyl)-1H-indol-6-yl]oxy]pentanoic acid ethyl ester], the IC50 was determined as 300 ± 120 nM. On the same count and under the same terms, next, `Cc1c(CC(N)=O)c2c(O)cccc2n1Cc1ccccc1` [Example 36, 4-Hydroxy-2-methyl-1-(phenylmethyl)-1H-indole-3-acetamide]: 7460 ± 1660 nM; `CSc1c(CC(N)=O)c2cc(OCCCC(=O)O)ccc2n1Cc1ccccc1` [Example 46, 4-[[3-(2-Amino-2-oxoethyl)-2-(methylthio)-1-(phenylmethyl)-1H-indol-5-yl]oxy]butanoic acid]: 160 ± 190 nM; `CSc1c(CC(N)=O)c2cc(OCCCC(N)=O)ccc2n1Cc1ccccc1` [Example 47, 5-(4-Amino-4-oxobutoxy)-2-(methylthio)-1-(phenylmethyl)-1H-indole-3-acetamide]: 90 ± 60 nM.

Staying with this assay, now noted: pH 7.5, 40° C., 30 minutes, 405 nm; read-out: Inhibition of human secreted PLA2 IC50 ± mean deviation (3-5 tests).
Take `Cc1ccc2c(CC(N)=O)c(C)n(Cc3ccccc3)c2c1` [Example 1, 2,6-Dimethyl-1-(phenylmethyl)-1H-indole-3-acetamide]: the IC50 worked out at 1330 ± 450 nM.

As to `COc1ccc2c(c1)c(CC(N)=O)cn2Cc1ccccc1` [Example 3, 5-Methoxy-1-(phenylmethyl)-1H-indole-3-acetamide], the IC50 is 3700 ± 2820 nM.

Regarding `COc1ccc2c(c1)c(CC(N)=O)c(C)n2Cc1c(Cl)cccc1Cl` [Example 6, 1-(2,6-Dichlorophenylmethyl)-5-methoxy-2-methyl-1H-indole-3-acetamide], the IC50 worked out at 1300 ± 290 nM. As to `COc1ccc2c(c1)c(CC(N)=O)c(C)n2Cc1ccc(OCc2ccccc2)cc1` [Example 7, 1-[(4-Benzyloxyphenyl)methyl]-5-methoxy-2-methyl-1H-indole-3-acetamide], the IC50 was 5450 ± 1620 nM. Take `COc1ccc2c(c1)c(CC(N)=O)c(C)n2Cc1ccccn1` [Example 8, 5-Methoxy-2-methyl-1-[(2-pyridyl)methyl]-1H-indole-3-acetamide]: the half-inhibitory concentration (IC50) came to 21400 ± 8550 nM. Same read-out and setting: next, `CCCc1c(CC(N)=O)c2cc(OC)ccc2n1Cc1ccccc1` [Example 10, 5-Methoxy-1-(phenylmethyl)-2-propyl-1H-indole-3-acetamide]: 38100 ± 2820 nM; `COc1ccc2c(c1)c(CC(N)=O)c(Cl)n2Cc1ccccc1` [Example 11, 2-Chloro-5-methoxy-1-(phenylmethyl)-1H-indole-3-acetamide]: 250 ± 30 nM. The same measure, in the same setting: next, `Cc1c(CC(N)=O)c2cc(OCc3ccccc3)ccc2n1Cc1ccccc1` [Example 13, 5-Benzyloxy-2-methyl-1-(phenylmethyl)-1H-indole-3-acetamide]: 920 ± 240 nM; `CCCCCCCCCCn1c(C)c(CC(N)=O)c2cc(OC)ccc21` [Example 14, 1-Decyl-5-methoxy-2-methyl-1H-indole-3-acetamide]: 8480 ± 5250 nM; `Cc1c(CC(N)=O)c2cc(C(N)=O)ccc2n1Cc1ccccc1` [Example 15, 5-Aminocarbonyl-2-methyl-1-(phenylmethyl)-1H-indole-3-acetamide]: 1510 ± 580 nM. Take `Cc1c(CC(N)=O)c2cc(N)ccc2n1Cc1ccccc1` [Example 17, 5-Amino-2-methyl-1-(phenylmethyl)-1H-indole-3-acetamide]: the IC50 stood at 1610 ± 440 nM. The same measure, in the same setting: next, `COC(=O)CCOc1ccc2c(c1)c(CC(N)=O)c(C)n2Cc1ccccc1` [Example 20, 3-[[3-(2-Amino-2-oxoethyl)-2-methyl-1-(phenylmethyl)-1H-indol-5-yl]oxy]-propanic acid methyl ester]: 1050 ± 110 nM. Consider `COC(=O)CCNc1ccc2c(c1)c(CC(N)=O)c(C)n2Cc1ccccc1` [Example 25, 3-[[3-(2-Amino-2-oxoethyl)-2-methyl-1-(phenylmethyl)-1H-indol-5-yl]amino]propanoic acid methyl ester], for which the IC50 was 3340 ± 460 nM. Consider `COC(=O)CCN(CCC(=O)OC)c1ccc2c(c1)c(CC(N)=O)c(C)n2Cc1ccccc1` [Example 26, 3,3'-[[3-(2-Amino-2-oxoethyl)-2-methyl-1-(phenylmethyl)-1H-indol-5-yl]imino]bis[propanoic acid]dimethyl ester], for which the IC50 was determined as 2490 nM. Turning to `Cc1c(CC(N)=O)c2cc(NCCC(=O)NN)ccc2n1Cc1ccccc1` [Example 28, 3-[[3-(2-Amino-2-oxoethyl)-2-methyl-1-(phenylmethyl)-1H-indol-5-yl]amino]propanoic acid hydrazide], the IC50 was determined as 1550 ± 930 nM. `Cc1c(CC(N)=O)c2ccc(O)cc2n1Cc1ccccc1` [Example 30, 6-Hydroxy-2-methyl-1-(phenylmethyl)-1H-indole-3-acetamide]: the half-maximal inhibitory concentration (IC50) is 3610 ± 750 nM. Regarding `CCOC(=O)CCCOc1ccc2c(CC(N)=O)c(C)n(Cc3ccccc3)c2c1` [Example 31, 4-[[3-(2-Amino-2-oxoethyl)-2-methyl-1-(phenylmethyl)-1H-indol-6-yl]oxy]butanoic acid ethyl ester], the 50% inhibitory concentration (IC50) was 450 ± 80 nM. Same read-out and setting: in the case of `Cc1c(CC(N)=O)c2ccc(OCCCC(=O)O)cc2n1Cc1ccccc1` [Example 32, 4-[[3-(2-Amino-2-oxoethyl)-2-methyl-1-(phenylmethyl)-1H-indol-6-yl]oxy]butanoic acid] it was 12200 ± 550 nM; in that of `Cc1c(CC(N)=O)c2ccc(OCCCCC(=O)O)cc2n1Cc1ccccc1` [Example 34, 5-[[3-(2-Amino-2-oxoethyl)-2-methyl-1-(phenylmethyl)-1H-indol-6-yl]oxy]pentanoic acid], 7960 ± 1220 nM; in that of `COc1cccc2c1c(CC(N)=O)c(C)n2Cc1ccccc1` [Example 35, 4-Methoxy-2-methyl-1-(phenylmethyl)-1H-indole-3-acetamide], 2360 ± 150 nM. With `CCOC(=O)CCCOc1cccc2c1c(CC(N)=O)c(C)n2Cc1ccccc1` [Example 37, 4-[[3-(2-Amino-2-oxoethyl)-2-methyl-1-(phenylmethyl)-1H-indol-4-yl]oxy]butanoic acid ethyl ester], the IC50 amounted to 9440 ± 1440 nM. With `COc1ccc2c(c1)c(CC(N)=O)c(Br)n2Cc1ccccc1` [Example 42, 2-Bromo-5-methoxy-1-(phenylmethyl)-1H-indole-3-acetamide], the half-inhibitory concentration (IC50) was determined as 230 ± 60 nM. For the compound `NC(=O)Cc1c(Br)n(Cc2ccccc2)c2ccc(OCCCC(=O)O)cc12` [Example 43, 4-[[3-(2-Amino-2-oxoethyl)-2-bromo-1-(phenylmethyl)-1H-indol-5-yl]oxy]butanoic acid], the IC50 came out at 70 ± 30 nM.

As for `CCOC(=O)CCCOc1ccc2c(c1)c(CC(N)=O)c(SC)n2Cc1ccccc1` [Example 45, 4-[[3-(2-Amino-2-oxoethyl)-2-(methylthio)-1-(phenylmethyl)-1H-indol-5-yl]oxy]butanoic acid ethyl ester], the 50% inhibitory concentration (IC50) was determined as 1550 ± 510 nM.

As for `CCCCCCCCCCCCCCn1c(C)c(CC(N)=O)c2cc(OC)ccc21` [Example 48, 5-Methoxy-2-methyl-1-tetradecyl-1H-indole-3-acetamide], the IC50 is over 100000 nM. On the same count and under the same terms, in the case of `CCCCCCCCCCCCCCn1c(C)c(CC(N)=O)c2cc(OCCCC(=O)O)ccc21` [Example 49] it was 470 ± 50 nM; in that of `CCCCCCn1c(C)c(CC(N)=O)c2cc(OCCCC(=O)O)ccc21` [Example 50], 2470 ± 1310 nM. Consider `CCCCCCCCn1c(C)c(CC(N)=O)c2cc(OC)ccc21` [Example 51, 5-Methoxy-2-methyl-1-octyl-1H-indole-3-acetamide], for which the IC50 was found to be 8280 ± 4330 nM.

The same assay, now with this note: unit printed aM; pH 7.5, 40° C., 30 minutes, 405 nm; read-out: Inhibition of human secreted PLA2 IC50 ± mean deviation (3-5 tests).
With `CSc1c(CC(N)=O)c2cc(O)ccc2n1Cc1ccccc1` [Example 44, 5-Hydroxy-2-(methylthio)-1-(phenylmethyl)-1H-indole-3-acetamide], the IC50 was 380 ± 140 nM.

The assay is the same for the next values; noted with them: unit printed um; pH 7.5, 40° C., 30 minutes, 405 nm; read-out: Inhibition of human secreted PLA2 IC50 ± mean deviation (3-5 tests).
Regarding `COc1ccc2c(CC(N)=O)c(C)n(Cc3ccccc3)c2c1` [Example 29, 6-Methoxy-2-methyl-1-(phenylmethyl)-1H-indole-3-acetamide], the IC50 is 1230 ± 330 nM.

For the origin of these results see patent US5684034A, “1H-indole-3-acetamide sPLA2 inhibitors” (Eli Lilly and Company, priority 1995, dated 1997).
